Reference: ChEMBL document CHEMBL4321832 (J Med Chem, 2019)

Legend:
[1] = biological target: T1, CYP51 (lanosterol 14-alpha demethylase) (Homo sapiens, UniProt Q16850); test: Inhibition of recombinant full length human CYP51 expressed in Escherichia coli at inhibitor/enzyme ratio 50/1 incubated for 1 hr using [3H] lanosterol as substrate by HPLC analysis relative to control; set-up: concentration or dose not given beside the values; conditions: probe [3H] lanosterol
T1 sequence (Q16850 whole entry): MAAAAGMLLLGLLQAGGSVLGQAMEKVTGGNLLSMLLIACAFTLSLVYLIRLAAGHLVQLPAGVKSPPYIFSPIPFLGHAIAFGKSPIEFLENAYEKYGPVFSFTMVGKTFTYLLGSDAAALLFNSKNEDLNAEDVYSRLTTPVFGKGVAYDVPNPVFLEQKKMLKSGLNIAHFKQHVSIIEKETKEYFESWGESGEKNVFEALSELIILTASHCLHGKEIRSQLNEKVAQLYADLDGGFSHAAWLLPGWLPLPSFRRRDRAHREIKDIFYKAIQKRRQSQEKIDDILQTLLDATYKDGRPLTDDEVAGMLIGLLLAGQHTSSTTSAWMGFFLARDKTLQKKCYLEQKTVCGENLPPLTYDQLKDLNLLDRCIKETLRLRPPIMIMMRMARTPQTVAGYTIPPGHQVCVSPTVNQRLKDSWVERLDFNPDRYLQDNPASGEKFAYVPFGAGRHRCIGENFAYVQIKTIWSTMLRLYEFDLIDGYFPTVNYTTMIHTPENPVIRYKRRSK

[2] = Lipophilicity, logP of compound; type: physicochemical; conditions: octanol/water
[3] = biological target: T2, Lanosterol 14-alpha demethylase (Homo sapiens, UniProt Q16850); test: Binding affinity to recombinant full length human CYP51 expressed in Escherichia coli incubated for 30 sec using [3H] labelled substrate by HPLC analysis
T2 sequence (Q16850 whole entry): T1 sequence (Q16850 whole entry)

[4] = test system: MCF7; test: Antiproliferative activity against human MCF7 cells assessed as reduction in cell viability incubated for 24 hrs by BrdU based ELISA; type: functional; conditions: MCF7, 24 h
[5] = biological target: T2, Lanosterol 14-alpha demethylase; test: Inhibition of recombinant full length human CYP51 expressed in Escherichia coli incubated for 1 min using [3H] lanosterol as substrate by HPLC analysis
[6] = biological target: T1, CYP51 (lanosterol 14-alpha demethylase); test: Inhibition of recombinant full length human CYP51 expressed in Escherichia coli at inhibitor/enzyme ratio 25/1 incubated for 1 hr using [3H] lanosterol as substrate by HPLC analysis relative to control; conditions: probe [3H] lanosterol
[7] = test system: MDA-MB-436; test: Antiproliferative activity against human MDA-MB-436 cells assessed as reduction in cell viability incubated for 24 hrs by BrdU based ELISA; type: functional; conditions: MDA-MB-436, 24 h
[8] = biological target: T2, Lanosterol 14-alpha demethylase; test: Inhibition of recombinant full length human CYP51 expressed in Escherichia coli incubated for 1 hr using [3H] lanosterol as substrate by HPLC analysis
[9] = test system: A549; test: Antiproliferative activity against human A549 cells assessed as reduction in cell viability incubated for 24 hrs by BrdU based ELISA; type: functional; conditions: A549, 24 h
[10] = test system: A-431; test: Antiproliferative activity against human A431 cells assessed as reduction in cell viability incubated for 24 hrs by BrdU based ELISA; type: functional; conditions: A-431, 24 h
[11] = Inhibition of human CYP51 T314I mutant expressed in Escherichia coli incubated for 1 hr using [3H] lanosterol as substrate by HPLC analysis

| SMILES | inhibition at 1 h [1] [%] | logP ([2]; read-out: logP) | Kd [3] [µM] | IC50 [5] [µM] | inhibition at 1 h [6] [%] | IC50 [8] [µM] | logP [2] | IC50 [11] [µM] | EC50 [4] [µM] | EC50 [7] [µM] | EC50 [9] [µM] | EC50 [10] [µM] |
| --- | --- | --- | --- | --- | --- | --- | --- | --- | --- | --- | --- | --- |
| O=C(N[C@@H](Cn1ccnc1)c1ccc(-c2ccc(F)cc2)cc1Cl)c1ccc(-c2nnc(-c3cc(-c4ccccn4)ccc3F)o2)cc1 | 93 | 6.8 | – | – | – | – | – | – | – | – | – | – |
| O=C(N[C@@H](Cn1ccnc1)c1ccc(-c2ccc(F)cc2)cc1F)c1ccc(-c2nnc(-c3ccccc3)o2)cc1 | 64 | 5.4 | 0.09 | < 0.5 | 33 | 24.4 | – | – | 10 to 30 | 10 to 30 | 10 to 30 | 10 to 30 |
| O=C(N[C@@H](Cn1ccnc1)c1ccc(-c2ccc(F)cc2)cc1-c1ccccc1)c1ccc(-c2nnc(-c3ccccc3)o2)cc1 | 41 | 5.3 | – | 1.5 | 0 | > 25 | – | – | – | – | – | – |
| O=C(N[C@@H](Cn1ccnc1)c1ccc(-c2ccc(F)cc2)c2ccccc12)c1ccc(-c2nnc(-c3ccccc3)o2)cc1 | 1 | 5.8 | – | 3 | 0 | > 25 | – | – | – | – | – | – |
| COc1ccc(-c2cc(-c3ccc(F)cc3)ccc2[C@H](Cn2ccnc2)NC(=O)c2ccc(-c3nnc(-c4ccccc4)o3)cc2)cc1 | 0 | 5.8 | – | 12 | 0 | > 25 | – | – | – | – | – | – |

More lines, main results first:

| inhibition at 1 h [1] [%] | logP ([2]; read-out: logP) | Kd [3] [µM] | IC50 [5] [µM] | inhibition at 1 h [6] [%] | IC50 [8] [µM] | logP [2] | IC50 [11] [µM] | SMILES | EC50 [4] [µM] | EC50 [7] [µM] | EC50 [9] [µM] | EC50 [10] [µM] |
| --- | --- | --- | --- | --- | --- | --- | --- | --- | --- | --- | --- | --- |
| 89 | 5.4 | 0.13 | < 0.5 | 82 | 3.6 | – | – | CS(=O)(=O)c1cc(Br)cc(-c2nnc(-c3ccc(C(=O)N[C@@H](Cn4ccnc4)c4ccc(-c5ccc(F)cc5)cc4Cl)cc3)o2)c1 | – | – | – | – |
| 90 | 5.3 | 0.02 | < 0.5 | 82 | 4.4 | – | – | CS(=O)(=O)c1cc(-c2ccccn2)cc(-c2nnc(-c3ccc(C(=O)N[C@@H](Cn4ccnc4)c4ccc(-c5ccc(F)cc5)cc4Cl)cc3)o2)c1 | – | – | – | – |
| 91 | – | – | < 0.5 | 73 | 5.9 | 6.9 | 2.1 | O=C(N[C@@H](Cn1ccnc1)c1ccc(-c2ccc(F)cc2)cc1Cl)c1ccc(-c2nnc(-c3ccccc3)o2)cc1 | – | – | – | – |
| 73 | 7.7 | 0.47 | < 0.5 | 25 | 15 | – | – | O=C(N[C@@H](Cn1ccnc1)c1ccc(-c2ccc(F)cc2)cc1Cl)c1ccc(-c2nnc(-c3cc(Br)cc4ccccc34)o2)cc1 | – | – | – | – |
| 98 | 6.3 | 0.09 | < 0.5 | 98 | < 1 | – | – | O=C(N[C@@H](Cn1ccnc1)c1ccc(-c2ccc(F)cc2)cc1Cl)c1ccc(-c2nnc(-c3cc(F)cc(-c4ncncc4F)c3)o2)cc1 | – | – | – | – |
| 96 | 6.8 | 0.15 | < 0.5 | 95 | < 1 | – | – | O=C(N[C@@H](Cn1ccnc1)c1ccc(-c2ccc(F)cc2)cc1Cl)c1ccc(-c2nnc(-c3cc(F)cc(-c4ccccn4)c3)o2)cc1 | – | – | – | – |
| 8 | 5.8 | – | 5.2 | 0 | > 25 | – | – | O=C(N[C@@H](Cn1ccnc1)c1ccc(-c2ccc(F)cc2)cc1-c1ccco1)c1ccc(-c2nnc(-c3ccccc3)o2)cc1 | – | – | – | – |
